system: test plant species; assay: Post-emergent herbicidal activity test (greenhouse, foliar spray, visual growth reduction); format: in vivo; details: post-emergence, 336 h, ECHCG: barnyardgrass (Echinochloa crus-galli), 140 g ai/ha, 14 days after application, read-out: Visual Growth Reduction (%) 14 Days After Application, ECHCG
Summary of the method: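 Scoring used a 0 to 100 percent visual scale of growth reduction against solvent-treated controls, read 14 d after spraying. Applications went onto plants at first or second true leaf stage, 187 L/ha, with crop oil concentrate and X-77 surfactant in the carrier. Post-treatment watering was by subirrigation to avoid wash-off.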

First: COC(=O)c1nc(-c2cc3c(cc2Cl)OC(F)(F)O3)ncc1Cl [F232, Methyl 5-chloro-2-(6-chloro-2,2-difluorobenzo[d][1,3]dioxol-5-yl)pyrimidine-4-carboxylate]
Second: COC(=O)c1nc(-c2ccc(C(F)(F)F)c(C)c2)ccc1Cl [F308, Methyl 3-chloro-6-(3-methyl-4-(trifluoromethyl)phenyl)picolinate]
The pest or weed control at 140 g/ha of the first is higher: 75 to 84% for the first, 0 to 29% for the second.

same assay, conditions: post-emergence, 336 h, IPOHE: ivy-leaf morning glory (Ipomoea hederacea), 140 g ai/ha, 14 days after application, read-out: Visual Growth Reduction (%) 14 Days After Application, IPOHE

First: COC(=O)c1nc(-c2cc3c(cc2Cl)OC(F)(F)O3)ncc1Cl [F232, Methyl 5-chloro-2-(6-chloro-2,2-difluorobenzo[d][1,3]dioxol-5-yl)pyrimidine-4-carboxylate]
Second: COC(=O)c1nc(-c2ccc(C(F)(F)F)c(C)c2)ccc1Cl [F308, Methyl 3-chloro-6-(3-methyl-4-(trifluoromethyl)phenyl)picolinate]
The pest or weed control at 140 g/ha of the first is higher: 95 to 100% for the first, 0 to 29% for the second.

same assay, conditions: post-emergence, 336 h, KCHSC: kochia (Bassia scoparia), 140 g ai/ha, 14 days after application, read-out: Visual Growth Reduction (%) 14 Days After Application, KCHSC

First: COC(=O)c1nc(-c2cc3c(cc2Cl)OC(F)(F)O3)ncc1Cl [F232, Methyl 5-chloro-2-(6-chloro-2,2-difluorobenzo[d][1,3]dioxol-5-yl)pyrimidine-4-carboxylate]
Second: COC(=O)c1nc(-c2ccc(C(F)(F)F)c(C)c2)ccc1Cl [F308, Methyl 3-chloro-6-(3-methyl-4-(trifluoromethyl)phenyl)picolinate]
The pest or weed control at 140 g/ha of the first is higher: 45 to 59% for the first, 0 to 29% for the second.

same assay, conditions: post-emergence, 336 h, ORYSA: rice (Oryza sativa), 140 g ai/ha, 14 days after application, read-out: Visual Growth Reduction (%) 14 Days After Application, ORYSA

COC(=O)c1nc(-c2cc3c(cc2Cl)OC(F)(F)O3)ncc1Cl [F232, Methyl 5-chloro-2-(6-chloro-2,2-difluorobenzo[d][1,3]dioxol-5-yl)pyrimidine-4-carboxylate] and COC(=O)c1nc(-c2ccc(C(F)(F)F)c(C)c2)ccc1Cl [F308, Methyl 3-chloro-6-(3-methyl-4-(trifluoromethyl)phenyl)picolinate] fall in the same range of pest or weed control at 140 g/ha: 0 to 29% for the first, 0 to 29% for the second.

same assay, conditions: post-emergence, 336 h, SETFA: giant foxtail (Setaria faberi), 140 g ai/ha, 14 days after application, read-out: Visual Growth Reduction (%) 14 Days After Application, SETFA

First: COC(=O)c1nc(-c2cc3c(cc2Cl)OC(F)(F)O3)ncc1Cl [F232, Methyl 5-chloro-2-(6-chloro-2,2-difluorobenzo[d][1,3]dioxol-5-yl)pyrimidine-4-carboxylate]
Second: COC(=O)c1nc(-c2ccc(C(F)(F)F)c(C)c2)ccc1Cl [F308, Methyl 3-chloro-6-(3-methyl-4-(trifluoromethyl)phenyl)picolinate]
The pest or weed control at 140 g/ha of the first is higher: 75 to 84% for the first, 0 to 29% for the second.

same assay, conditions: post-emergence, 336 h, SORVU: grain sorghum (Sorghum vulgare), 140 g ai/ha, 14 days after application, read-out: Visual Growth Reduction (%) 14 Days After Application, SORVU

First: COC(=O)c1nc(-c2cc3c(cc2Cl)OC(F)(F)O3)ncc1Cl [F232, Methyl 5-chloro-2-(6-chloro-2,2-difluorobenzo[d][1,3]dioxol-5-yl)pyrimidine-4-carboxylate]
Second: COC(=O)c1nc(-c2ccc(C(F)(F)F)c(C)c2)ccc1Cl [F308, Methyl 3-chloro-6-(3-methyl-4-(trifluoromethyl)phenyl)picolinate]
The pest or weed control at 140 g/ha of the first is higher: 85 to 94% for the first, 0 to 29% for the second.

same assay, conditions: post-emergence, 336 h, STEME: common chickweed (Stellaria media), 140 g ai/ha, 14 days after application, read-out: Visual Growth Reduction (%) 14 Days After Application, STEME

Compared with COC(=O)c1nc(-c2cc3c(cc2Cl)OC(F)(F)O3)ncc1Cl [F232, Methyl 5-chloro-2-(6-chloro-2,2-difluorobenzo[d][1,3]dioxol-5-yl)pyrimidine-4-carboxylate], COC(=O)c1nc(-c2ccc(C(F)(F)F)c(C)c2)ccc1Cl [F308, Methyl 3-chloro-6-(3-methyl-4-(trifluoromethyl)phenyl)picolinate] is lower in pest or weed control at 140 g/ha: 45 to 59% for the first, 0 to 29% for the second.

same assay, conditions: post-emergence, 336 h, TRZAS: wheat, spring (Triticum aestivum), 140 g ai/ha, 14 days after application, read-out: Visual Growth Reduction (%) 14 Days After Application, TRZAS

First: COC(=O)c1nc(-c2cc3c(cc2Cl)OC(F)(F)O3)ncc1Cl [F232, Methyl 5-chloro-2-(6-chloro-2,2-difluorobenzo[d][1,3]dioxol-5-yl)pyrimidine-4-carboxylate]
Second: COC(=O)c1nc(-c2ccc(C(F)(F)F)c(C)c2)ccc1Cl [F308, Methyl 3-chloro-6-(3-methyl-4-(trifluoromethyl)phenyl)picolinate]
The pest or weed control at 140 g/ha of the first is higher: 45 to 59% for the first, 0 to 29% for the second.

same assay, conditions: post-emergence, 336 h, blackgrass (Alopecurus myosuroides), 14 Days After Application, 140 g ai/ha, read-out: Visual Growth Reduction (%) ALOMY

COC(=O)c1nc(-c2cc3c(cc2Cl)OC(F)(F)O3)ncc1Cl [F232, Methyl 5-chloro-2-(6-chloro-2,2-difluorobenzo[d][1,3]dioxol-5-yl)pyrimidine-4-carboxylate] and COC(=O)c1nc(-c2ccc(C(F)(F)F)c(C)c2)ccc1Cl [F308, Methyl 3-chloro-6-(3-methyl-4-(trifluoromethyl)phenyl)picolinate] fall in the same range of pest or weed control at 140 g/ha: 0 to 29% for the first, 0 to 29% for the second.

same assay, conditions: post-emergence, 336 h, canada thistle (Cirsium arvense), 14 Days After Application, 140 g ai/ha, read-out: Visual Growth Reduction (%) CIRAR

First: COC(=O)c1nc(-c2cc3c(cc2Cl)OC(F)(F)O3)ncc1Cl [F232, Methyl 5-chloro-2-(6-chloro-2,2-difluorobenzo[d][1,3]dioxol-5-yl)pyrimidine-4-carboxylate]
Second: COC(=O)c1nc(-c2ccc(C(F)(F)F)c(C)c2)ccc1Cl [F308, Methyl 3-chloro-6-(3-methyl-4-(trifluoromethyl)phenyl)picolinate]
The pest or weed control at 140 g/ha of the first is higher: 85 to 94% for the first, 0 to 29% for the second.

same assay, conditions: post-emergence, 336 h, crabgrass (Digitaria sanguinalis), 14 Days After Application, 140 g ai/ha, read-out: Visual Growth Reduction (%) DIGSA

First: COC(=O)c1nc(-c2cc3c(cc2Cl)OC(F)(F)O3)ncc1Cl [F232, Methyl 5-chloro-2-(6-chloro-2,2-difluorobenzo[d][1,3]dioxol-5-yl)pyrimidine-4-carboxylate]
Second: COC(=O)c1nc(-c2ccc(C(F)(F)F)c(C)c2)ccc1Cl [F308, Methyl 3-chloro-6-(3-methyl-4-(trifluoromethyl)phenyl)picolinate]
The pest or weed control at 140 g/ha of the first is higher: 95 to 100% for the first, 0 to 29% for the second.

same assay, conditions: post-emergence, 336 h, lambsquarters (Chenopodium album), 14 Days After Application, 140 g ai/ha, read-out: Visual Growth Reduction (%) CHEAL

First: COC(=O)c1nc(-c2cc3c(cc2Cl)OC(F)(F)O3)ncc1Cl [F232, Methyl 5-chloro-2-(6-chloro-2,2-difluorobenzo[d][1,3]dioxol-5-yl)pyrimidine-4-carboxylate]
Second: COC(=O)c1nc(-c2ccc(C(F)(F)F)c(C)c2)ccc1Cl [F308, Methyl 3-chloro-6-(3-methyl-4-(trifluoromethyl)phenyl)picolinate]
The pest or weed control at 140 g/ha of the first is higher: 95 to 100% for the first, 0 to 29% for the second.

same assay, conditions: post-emergence, 336 h, redroot pigweed (Amaranthus retroflexus), 14 Days After Application, 140 g ai/ha, read-out: Visual Growth Reduction (%) AMARE

Compared with COC(=O)c1nc(-c2cc3c(cc2Cl)OC(F)(F)O3)ncc1Cl [F232, Methyl 5-chloro-2-(6-chloro-2,2-difluorobenzo[d][1,3]dioxol-5-yl)pyrimidine-4-carboxylate], COC(=O)c1nc(-c2ccc(C(F)(F)F)c(C)c2)ccc1Cl [F308, Methyl 3-chloro-6-(3-methyl-4-(trifluoromethyl)phenyl)picolinate] is lower in pest or weed control at 140 g/ha: 60 to 74% for the first, 45 to 59% for the second.

same assay, conditions: post-emergence, 336 h, wild oat (Avena fatua), 14 Days After Application, 140 g ai/ha, read-out: Visual Growth Reduction (%) AVEFA

COC(=O)c1nc(-c2cc3c(cc2Cl)OC(F)(F)O3)ncc1Cl [F232, Methyl 5-chloro-2-(6-chloro-2,2-difluorobenzo[d][1,3]dioxol-5-yl)pyrimidine-4-carboxylate] and COC(=O)c1nc(-c2ccc(C(F)(F)F)c(C)c2)ccc1Cl [F308, Methyl 3-chloro-6-(3-methyl-4-(trifluoromethyl)phenyl)picolinate] fall in the same range of pest or weed control at 140 g/ha: 0 to 29% for the first, 0 to 29% for the second.

same assay, conditions: post-emergence, 336 h, yellow nutsedge (Cyperus esculentus), 14 Days After Application, 140 g ai/ha, read-out: Visual Growth Reduction (%) CYPES

COC(=O)c1nc(-c2cc3c(cc2Cl)OC(F)(F)O3)ncc1Cl [F232, Methyl 5-chloro-2-(6-chloro-2,2-difluorobenzo[d][1,3]dioxol-5-yl)pyrimidine-4-carboxylate] and COC(=O)c1nc(-c2ccc(C(F)(F)F)c(C)c2)ccc1Cl [F308, Methyl 3-chloro-6-(3-methyl-4-(trifluoromethyl)phenyl)picolinate] fall in the same range of pest or weed control at 140 g/ha: 0 to 29% for the first, 0 to 29% for the second.

From patent publication US20230017045A1, “PYRIDINE AND PYRIMIDINE CARBOXYLATE HERBICIDES AND METHODS OF USE THEREOF” (Dow AgroSciences LLC, priority 2017, published 2023)
